Results from patent US4596710A, “Gallium chloride as a new anti-cancerous drug” (priority 1981, dated 1986).

Columns and labels:
[1] = Clinical and biological tolerance in patients; conditions: Adriamycine 50 mg + 5-fluoro-uracil 900 mg + Endoxan 900 mg; before gallium chloride; alcoholic patient
Description: Mrs. […] Post-operative chemotherapy (5-fluoro-uracil and endoxan) was then effected up to April 1979. At that time, […] underwent a second operation with excision of the remaining cervix and omentectomy. […] Cobalt therapy was then carried out from Nov. 5th, 1979 to Feb. 5th, 1980 on the abdomen, pelvis and diaphragm cupolas, then further chemotherapy (hexamethylmelamine) from August to October 1980. […] Treatment by gallium chloride started on Nov. 1 st, 1980 at the posology of 300 mg per day per os in three doses of 100 mg. […] An echotomograph on Dec. […] A third echotomograph was made on Jan. […] On Mar.
The treatment by gallium chloride was started on May 15th, 1981, at the posology of 600 mg/24 hours up to Sept. 20th, 1981, in association with a heparinotherapy at mini-doses. This heparinotherapy had been prescribed to prevent a phlebitis or pulmonary embolism following the surgical operation of April 1981 and had not been interrupted in order not to provoke the phenomenon of tumoral flare-up. [Calciparin (heparin calcium salt) 0.2 ml, 3 times per day by sub-cutaneous route]. […] On Sept. […] This was the case. . . […] 29th, 1981. […] Up to Nov. […] It was from Sept.
HOT... […] , was operated on May 14th, 1981 for an adenocarcinoma of the colon. […] An almost total colectomy was carried out, leaving 20 cm of sigmoid and a resection of the small bowel over a length of 15 cm. […] On Oct. […] An exploratory laparotomy was made on Nov. […] 7th, 1982.
Gallium chloride therapy was started on Sept.

[2] = cited from earlier work
[3] = Anghileri 1973; cited from earlier work

COc1cccc2c1C(=O)c1c(O)c3c(c(O)c1C2=O)C[C@@](O)(C(=O)CO)C[C@@H]3O[C@H]1C[C@H](N)[C@H](O)[C@H](C)O1 [Adriamycine, reference compound]
pancytopenia after combination chemotherapy, 2nd patient [1]: a pancytopenia which would persist for several months

O=[N+]([O-])[O-].O=[N+]([O-])[O-].O=[N+]([O-])[O-].[Ga+3] [gallium nitrate]
renal toxicity ([2]; human therapeutics): excessive renal toxicity | results of tests in human therapeutics ([2]; in vivo): minor results

gallium
displacement of magnesium from the cell [3]: capable of displacing magnesium from the cell

O=c1[nH]cc(F)c(=O)[nH]1 [5-fluoro-uracil, reference compound]
pancytopenia after combination chemotherapy, 2nd patient [1]: a pancytopenia which would persist for several months

O=P1(N(CCCl)CCCl)NCCCO1 (stereo not drawn) [Endoxan, reference compound]
pancytopenia after combination chemotherapy, 2nd patient [1]: a pancytopenia which would persist for several months
